Laboratory results as given in patent US20220039395A1, “INSECT CONTROL AGENTS” (priority 2018, published 2022).
Entries after “also recorded” stand apart in the source; their conditions may differ. Numbered stars: 1 amine (or outer) side, 2 acyl side, 3 side chain; on linkers, the order of the positions; unused ones are H or OH. Suc = O=C(CCC(=O)[*:2])[*:1]; 2Abf = not defined here

Assays:
Myzus persicae = experiment: Desiccation/starvation tolerance assay after peptide microinjection; assay type: in vivo; conditions: Myzus persicae, microinjection; for Documented effect on desiccation/starvation mortality: final concentration ×10^−5 M, relative to vehicle control; for LTime50 (h), test / Median ± IQR survival (h), test: ×10^−5 M, desiccation and starvation stress, test group
Experimental: (§1) Neuropeptides were administered to test aphids via microinjection to allow for rapid mass screening of neuropeptide analogue efficacy. For this, native neuropeptides were diluted in double distilled water (DDH2O) to a concentration of 1×10^−5 M. Neuropeptide analogues were diluted in DDH2O to the following concentrations: kinin analogues 1728 (2.5×10^−5 M), 2139 (3.5×10^−5 M), 2139-Ac (3.5×10^−5 M); CAP2b analogues 1895 (3.5×10^−5 M), 1896 (3.5×10^−5 M), 1902 (3.5×10^−5 M), 2089 (3.9×10^−5 M), 2123 (1.0×10^−5 M), 2125 (1.0×10^−5 M), 2129 (2.0×10^−5 M). Once at the desired concentration, neuropeptide solutions were administered to test aphids at an injection volume of 9 nl based on total haemolymph volume, to produce an approximate 1:20 dilution of injection volume to haemolymph. Injections were performed using a pulled glass needle and a Nanoject II Auto-Nanoliter Injector (Drummond Scientific Company, Broomall, Pa.). A vehicle control was set up for each treatment/day of experiments to account for variation in needle pulling. For this, control aphids were injected with 9 nl of DDH2O and subsequently exposed to the same experiments as aphids receiving the neuropeptide treatment. Neuropeptide treated and vehicle control aphids were subsequently used in the stress bioassays detailed below.
(§2) Anholocyclic adults of mixed age of either M. persicae or M. rosae were selected from the stock cultures and treated with a native neuropeptide or neuropeptide analogue via microinjection using the method detailed above. Treated and vehicle control aphids were allowed to recover on excised leaves of the host plant for 1 h before being placed in an empty ventilated microcage (L=4 cm, 0=9.5 cm) at densities of 10 per cage. In total, 30-40 aphids were treated for each neuropeptide treatment group and a further 30-40 for the associated vehicle control group. From the point of placement in the microcage (taken as 0 h), aphid survival was checked every hour during daylight hours and approximately every 4 h during night-time hours until the final aphid died. Survival data were subsequently analysed using a Log-rank (Mantel-Cox) text in GraphPad Prism version 7.0. LTime50 (the time taken to kill 50% of the test population) values were calculated via Probit Analysis in Minitab 17 (Minitab Inc., State College, Pa.).

Macrosiphum rosae = experiment: as above; assay type: in vivo; conditions: Macrosiphum rosae, microinjection; for Documented effect on desiccation/starvation mortality: final concentration ×10^−5 M, relative to vehicle control; for LTime50 (h), test / Median IQR survival (h), test: ×10^−5 M, desiccation and starvation stress, test group
Experimental: as §1, §2

Substance	Documented effect on desiccation/starvation mortality (Myzus persicae)	LTime50 (h), test (Myzus persicae)	Median ± IQR survival (h), test (Myzus persicae)	Documented effect on desiccation/starvation mortality (Macrosiphum rosae)	LTime50 (h), test (Macrosiphum rosae)	Median IQR survival (h), test (Macrosiphum rosae)
2Abf-Suc-FT[Hyp]RV-NH2 [compound 2123]	No effect	24.3 | 21.1 h	25.0 ± 13.5 | 21.0 ± 13.5 h	No effect	21.6 | 19.1 h	24.0 ± 11.0 | 16.0 ± 18.0 h
FF[Aib]WG-NH2 [compound 2139, reference compound]	non-significant survival curves; also recorded: No effect	18.3 | 22.4 h	22.0 ± 16.5 | 25.0 ± 21.0 h	non-significant survival curves; also recorded: No effect	31.7 | 29.8 h	29.5 ± 22.0 | 27.0 ± 26.0 h
2Abf-Suc-FTPRV-NH2 ({2Abf-Suc}-FTPRV-NH2; reading uncertain; also: printed as 2Abf-Suc-FTPRV-NH2) [compound 2089]	No effect	10.9 | 13.0 h	11.0 ± 12.0 | 16.5 ± 10.3 h	No effect	23.2 | 16.4 h	23.0 ± 17.0 | 17.0 ± 21.3 h
2Abf-Suc-FTPRI-NH2 ({2Abf-Suc}-FTPRI-NH2; reading uncertain; also: printed as 2Abf-Suc-FTPRI-NH2) [compound 1896]	No effect	22.2 | 24.8 h	24.0 ± 0 9.0 | 25.0 ± 10.5 h	No effect	28.9 | 24.7 h	27.0 ± 17.3 | 23.0 ± 18.5 h
2Abf-Suc-FKPRL-NH2 ({2Abf-Suc}-FKPRL-NH2; reading uncertain; also: printed as 2Abf-Suc-FKPRL-NH2) [compound 1902]	No effect	22.2 | 21.8 h	24.0 ± 0 9.0 | 23.5 ± 7.0 h	No effect	28.9 | 26.4 h	27.0 ± 17.3 | 25.0 ± 10.0 h
[Aib]FF[Aib]WG-NH2 [compound 1728, reference compound]	No effect	18.3 | 25.0 h	22.0 ± 16.5 | 26.0 ± 23.5 h	No effect	31.7 | 31.6 h	29.5 ± 22.0 | 24.0 ± 28.5 h
